According to US10660877B2 (BRISTOL-MYERS SQUIBB COMPANY, priority 2016, dated 2020):
pIC50: −log10 of the molar value. Like-named read-outs stand apart in the source and are kept apart here.

Assays:
human TLR7 = human TLR7 (Homo sapiens (Human), UniProt Q9NYK1); assay: TLR7 inhibition reporter assay (HEK-Blue cells, SEAP reporter, gardiquimod stimulation); format: cell-based; conditions: HEK-Blue cells overexpressing human TLR7, gardiquimod 7.5 μM
human TLR8 = human TLR8 (Homo sapiens (Human), UniProt Q9NR97); assay: TLR8 inhibition reporter assay (HEK-Blue cells, SEAP reporter, R848 stimulation);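 also: compounds tested from 0.05 nM to 50 µM, 22 h at 37 °C, SEAP measured with HEK-Blue Detection, inhibition relative to agonist plus DMSO versus a known inhibitor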
human TLR8, sequence (Q9NR97 27-1041): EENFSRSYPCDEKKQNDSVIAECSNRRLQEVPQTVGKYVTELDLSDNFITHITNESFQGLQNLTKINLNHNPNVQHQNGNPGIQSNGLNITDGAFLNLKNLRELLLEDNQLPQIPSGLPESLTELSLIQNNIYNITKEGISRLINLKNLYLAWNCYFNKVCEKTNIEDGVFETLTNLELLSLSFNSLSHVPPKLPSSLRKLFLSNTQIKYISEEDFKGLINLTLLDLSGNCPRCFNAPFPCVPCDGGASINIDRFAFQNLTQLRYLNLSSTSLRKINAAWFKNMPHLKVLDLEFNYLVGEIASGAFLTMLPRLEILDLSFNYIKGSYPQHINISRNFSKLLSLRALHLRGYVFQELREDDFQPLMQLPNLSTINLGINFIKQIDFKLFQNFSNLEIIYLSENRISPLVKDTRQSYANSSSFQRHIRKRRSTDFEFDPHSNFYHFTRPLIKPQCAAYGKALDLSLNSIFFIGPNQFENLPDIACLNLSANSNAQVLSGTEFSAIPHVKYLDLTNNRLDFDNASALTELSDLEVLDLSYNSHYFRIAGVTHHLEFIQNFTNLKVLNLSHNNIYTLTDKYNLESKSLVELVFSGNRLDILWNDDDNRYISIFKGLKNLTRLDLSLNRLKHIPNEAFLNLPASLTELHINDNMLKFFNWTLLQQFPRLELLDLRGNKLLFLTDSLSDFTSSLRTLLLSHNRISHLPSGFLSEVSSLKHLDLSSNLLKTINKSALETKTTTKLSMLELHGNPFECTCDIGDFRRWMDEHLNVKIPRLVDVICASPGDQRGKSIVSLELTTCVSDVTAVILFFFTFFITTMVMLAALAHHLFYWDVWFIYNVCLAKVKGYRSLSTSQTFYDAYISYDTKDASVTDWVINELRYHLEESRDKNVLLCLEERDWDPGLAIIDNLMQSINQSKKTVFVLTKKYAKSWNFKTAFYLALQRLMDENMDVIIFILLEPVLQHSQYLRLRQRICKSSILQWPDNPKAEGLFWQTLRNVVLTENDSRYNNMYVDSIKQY
Description: TLR7/8/9 Inhibition Reporter Assays
Briefly, cells are seeded into Greiner 384 well plates (15000 cells per well for TLR7, 20,000 for TLR8 and 25,000 for TLR9) and then treated with test compounds in DMSO to yield a final dose response concentration range of 0.05 nM-50 μM. […] After a 22 hour incubation at 37° C., 5% CO2, SEAP levels are determined with the addition of HEK-Blue™ Detection reagent (Invivogen), a cell culture medium that allows for detection of SEAP, according to manufacturer's specifications. The percent inhibition is determined as the % reduction in the HEK-Blue signal present in wells treated with agonist plus DMSO alone compared to wells treated with a known inhibitor.

human TLR9 = human TLR9 (Homo sapiens (Human), UniProt Q9NR96); assay: TLR9 inhibition reporter assay (HEK-Blue cells, SEAP reporter, ODN2006 stimulation);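 also: compounds tested over 0.05 nM to 50 µM, 22 h incubation, inhibition taken as SEAP signal drop from agonist plus DMSO wells toward a known inhibitor control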
human TLR9, sequence (Q9NR96 26-1032): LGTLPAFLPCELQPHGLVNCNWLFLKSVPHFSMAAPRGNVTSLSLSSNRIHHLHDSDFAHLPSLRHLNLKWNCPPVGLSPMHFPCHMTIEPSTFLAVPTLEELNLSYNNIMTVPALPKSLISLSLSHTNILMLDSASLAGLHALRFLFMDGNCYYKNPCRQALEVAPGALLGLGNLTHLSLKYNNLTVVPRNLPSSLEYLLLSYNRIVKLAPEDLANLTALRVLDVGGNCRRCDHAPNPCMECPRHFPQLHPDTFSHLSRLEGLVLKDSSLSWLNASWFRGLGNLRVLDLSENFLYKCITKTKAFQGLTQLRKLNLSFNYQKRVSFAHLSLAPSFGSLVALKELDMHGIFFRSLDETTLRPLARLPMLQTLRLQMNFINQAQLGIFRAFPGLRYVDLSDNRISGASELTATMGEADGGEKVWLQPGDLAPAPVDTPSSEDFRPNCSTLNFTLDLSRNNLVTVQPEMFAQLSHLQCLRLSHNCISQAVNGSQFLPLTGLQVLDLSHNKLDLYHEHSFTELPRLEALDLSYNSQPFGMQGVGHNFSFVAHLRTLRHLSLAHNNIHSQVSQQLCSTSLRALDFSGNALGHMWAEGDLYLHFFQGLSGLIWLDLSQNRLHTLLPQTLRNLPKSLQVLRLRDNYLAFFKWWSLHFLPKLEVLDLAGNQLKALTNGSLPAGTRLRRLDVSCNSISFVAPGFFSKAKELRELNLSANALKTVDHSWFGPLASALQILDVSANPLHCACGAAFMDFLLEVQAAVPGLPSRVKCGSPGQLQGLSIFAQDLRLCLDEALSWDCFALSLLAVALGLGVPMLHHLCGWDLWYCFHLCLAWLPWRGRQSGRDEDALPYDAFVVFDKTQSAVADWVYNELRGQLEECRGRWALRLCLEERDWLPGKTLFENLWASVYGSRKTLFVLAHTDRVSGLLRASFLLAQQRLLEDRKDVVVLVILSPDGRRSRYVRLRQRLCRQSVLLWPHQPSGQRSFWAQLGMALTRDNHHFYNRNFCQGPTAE

[1] = read-out: TLR8 IC50, HEK-Blue cells overexpressing human TLR8, R848 15.9 μM
[2] = read-out: TLR9 IC50, HEK-Blue cells overexpressing human TLR9, ODN2006 5 nM
[3] = TLR8 IC50, HEK-Blue cells overexpressing human TLR8, R848 15.9 μM
[4] = TLR9 IC50, HEK-Blue cells overexpressing human TLR9, ODN2006 5 nM

human TLR7, sequence (Q9NYK1 27-1049): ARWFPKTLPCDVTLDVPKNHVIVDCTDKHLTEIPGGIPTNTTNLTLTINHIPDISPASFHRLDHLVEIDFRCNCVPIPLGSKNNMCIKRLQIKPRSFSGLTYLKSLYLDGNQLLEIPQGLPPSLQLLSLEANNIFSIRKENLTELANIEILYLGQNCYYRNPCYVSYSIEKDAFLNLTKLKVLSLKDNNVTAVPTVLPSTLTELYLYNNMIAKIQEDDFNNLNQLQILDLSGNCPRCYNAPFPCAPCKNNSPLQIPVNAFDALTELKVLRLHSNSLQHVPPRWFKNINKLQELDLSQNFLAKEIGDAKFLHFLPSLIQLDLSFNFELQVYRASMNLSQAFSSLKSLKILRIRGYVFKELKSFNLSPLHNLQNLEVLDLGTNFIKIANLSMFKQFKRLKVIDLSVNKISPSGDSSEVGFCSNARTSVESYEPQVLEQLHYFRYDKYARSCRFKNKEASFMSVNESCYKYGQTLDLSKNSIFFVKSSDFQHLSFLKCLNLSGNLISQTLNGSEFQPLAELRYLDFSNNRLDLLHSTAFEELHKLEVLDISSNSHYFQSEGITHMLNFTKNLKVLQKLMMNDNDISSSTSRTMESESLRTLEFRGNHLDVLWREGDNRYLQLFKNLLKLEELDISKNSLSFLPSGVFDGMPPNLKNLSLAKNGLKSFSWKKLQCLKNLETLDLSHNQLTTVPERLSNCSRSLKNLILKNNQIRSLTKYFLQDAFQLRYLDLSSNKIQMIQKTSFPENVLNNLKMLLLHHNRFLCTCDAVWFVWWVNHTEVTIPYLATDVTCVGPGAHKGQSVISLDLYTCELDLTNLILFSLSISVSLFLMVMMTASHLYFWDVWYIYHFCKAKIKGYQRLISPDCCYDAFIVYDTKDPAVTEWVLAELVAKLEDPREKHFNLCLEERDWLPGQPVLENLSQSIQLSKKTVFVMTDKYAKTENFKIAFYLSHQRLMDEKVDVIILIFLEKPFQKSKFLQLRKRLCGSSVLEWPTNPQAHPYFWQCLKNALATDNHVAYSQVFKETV

Row | pIC50 (human TLR7) | pIC50 (human TLR8; [1]) | pIC50 (human TLR9; [2]) | pIC50 (human TLR8; [3]) | pIC50 (human TLR9; [4]) | Compound
1 | 7.12 | 7.40 | 6.33 | – | – | Cc1cc(-c2[nH]c3ccc(C4CCNCC4)cc3c2CC(F)F)ccn1 [Example 84, 3-(2,2-difluoroethyl)-2-(2-methylpyridin-4-yl)-5-(piperidin-4-yl)-1H-indole]
2 | 4.63 | < 4.30 | 5.59 | – | – | Cc1cc(-c2[nH]c3ccc(C4CCNCC4)cc3c2C(C)(C)C)ccn1 [Example 86, 3-(tert-butyl)-2-(2-methylpyridin-4-yl)-5-(piperidin-4-yl)-1H-indole]
3 | 7.92 | 8.15 | 7.15 | – | – | Cc1cc(-c2[nH]c3ccc(C4CCNCC4)cc3c2C2CC2)ccn1 [Example 88, 3-cyclopropyl-2-(2-methylpyridin-4-yl)-5-(piperidin-4-yl)-1H-indole]
4 | 7.87 | 7.97 | 6.26 | – | – | Cc1cc(-c2[nH]c3ccc(C4CCNCC4)cc3c2CC2CC2)ccn1 [Example 89, 3-(cyclopropylmethyl)-2-(2-methylpyridin-4-yl)-5-(piperidin-4-yl)-1H-indole]
5 | 8.49 | 7.82 | 7.04 | – | – | C=C(c1c(-c2cc(C)nc(C)c2)[nH]c2ccc(C3CCNCC3)cc12)C(F)(F)F [Example 91, 2-(2,6-dimethylpyridin-4-yl)-5-(piperidin-4-yl)-3-(3,3,3-trifluoroprop-1-en-2-yl)-1H-indole]
6 | 9.22 | 8.28 | 6.35 | – | – | Cc1cc(-c2[nH]c3ccc(C4CCNCC4)cc3c2C(C)C(F)(F)F)cc(C)n1 (stereo not drawn) [Example 92, 2-(2,6-dimethylpyridin-4-yl)-5-(piperidin-4-yl)-3-(1,1,1-trifluoropropan-2-yl)-1H-indole]
7 | 8.48 | 8.04 | 6.91 | – | – | Cc1cc(-c2[nH]c3ccc(C4CCNCC4)cc3c2C2CC2)cc(C)n1 [Example 93, 3-cyclopropyl-2-(2,6-dimethylpyridin-4-yl)-5-(piperidin-4-yl)-1H-indole]
8 | 6.27 | 5.50 | 6.91 | – | – | Cc1cc(-c2cc3cc(C4CCNCC4)ccc3[nH]2)cc(C)n1 [Example 94, 2-(2,6-dimethylpyridin-4-yl)-5-(piperidin-4-yl)-1H-indole]
9 | 8.04 | 7.63 | 5.88 | – | – | Cc1cc(-c2[nH]c3ccc(C4CCNCC4)cc3c2C(C)(C)C)cc(C)n1 [Example 96, 3-(tert-butyl)-2-(2,6-dimethylpyridin-4-yl)-5-(piperidin-4-yl)-1H-indole]
10 | 8.89 | 8.23 | 6.40 | – | – | Cc1cc(-c2[nH]c3ccc(C4CCN(C(=O)CCN(C)C)CC4)cc3c2C(C)C)cc(C)n1 [Example 97, 3-(dimethylamino)-1-(4-(2-(2,6-dimethylpyridin-4-yl)-3-isopropyl-1H-indol-5-yl)piperidin-1-yl)propan-1-one]
11 | 8.80 | 8.10 | 6.24 | – | – | Cc1cc(-c2[nH]c3ccc(C4CCN(C(=O)CN(C)C)CC4)cc3c2C(C)C)cc(C)n1 [Example 98, 2-(dimethylamino)-1-(4-(2-(2,6-dimethylpyridin-4-yl)-3-isopropyl-1H-indol-5-yl)piperidin-1-yl)ethan-1-one]
12 | 8.51 | 7.89 | 6.30 | – | – | CCN(CC)CC(=O)N1CCC(c2ccc3[nH]c(-c4cc(C)nc(C)c4)c(C(C)C)c3c2)CC1 [Example 99, 2-(diethylamino)-1-(4-(2-(2,6-dimethylpyridin-4-yl)-3-isopropyl-1H-indol-5-yl)piperidin-1-yl)ethan-1-one]
13 | 8.10 | – | – | 7.20 | 4.65 | Cc1cc(-c2[nH]c3ccc(C4CCN(C(=O)C5CC(=O)N(C)C5)CC4)cc3c2C(C)C)cc(C)n1 (stereo not drawn) [Example 100, 4-(4-(2-(2,6-dimethylpyridin-4-yl)-3-isopropyl-1H-indol-5-yl)piperidine-1-carbonyl)-1-methylpyrrolidin-2-one]
14 | 8.12 | – | – | 7.14 | 4.44 | Cc1cc(-c2[nH]c3ccc(C4CCN(C(=O)C5CC(=O)N(C)C5)CC4)cc3c2C(C)C)cc(C)n1 (stereo not drawn) [Example 102, 4-(4-(2-(2,6-dimethylpyridin-4-yl)-3-isopropyl-1H-indol-5-yl)piperidine-1-carbonyl)-1-methylpyrrolidin-2-one]
15 | 8.07 | 7.09 | 4.56 | – | – | Cc1cc(-c2[nH]c3ccc(C4CCN(C(=O)C5CCCO5)CC4)cc3c2C(C)C)cc(C)n1 (stereo not drawn) [Example 103, (4-(2-(2,6-dimethylpyridin-4-yl)-3-isopropyl-1H-indol-5-yl)piperidin-1-yl)(tetrahydrofuran-2-yl)methanone]
16 | 7.83 | 6.60 | 4.92 | – | – | CCC(CC)C(=O)N1CCC(c2ccc3[nH]c(-c4cc(C)nc(C)c4)c(C(C)C)c3c2)CC1 [Example 104, 1-(4-(2-(2,6-dimethylpyridin-4-yl)-3-isopropyl-1H-indol-5-yl)piperidin-1-yl)-2-ethylbutan-1-one]
17 | 8.48 | – | – | 7.66 | 4.92 | Cc1cc(-c2[nH]c3ccc(C4CCN(C(=O)C(F)F)CC4)cc3c2C(C)C)cc(C)n1 [Example 105, 1-(4-(2-(2,6-dimethylpyridin-4-yl)-3-isopropyl-1H-indol-5-yl)piperidin-1-yl)-2,2-difluoroethan-1-one]
18 | 8.09 | 7.17 | 4.51 | – | – | Cc1cc(-c2[nH]c3ccc(C4CCN(C(=O)CC5CCOCC5)CC4)cc3c2C(C)C)cc(C)n1 [Example 106, 1-(4-(2-(2,6-dimethylpyridin-4-yl)-3-isopropyl-1H-indol-5-yl)piperidin-1-yl)-2-(tetrahydro-2H-pyran-4-yl)ethan-1-one]
19 | 7.84 | 7.55 | 4.87 | – | – | Cc1cc(-c2[nH]c3ccc(C4CCN(C(=O)C5(O)CC5)CC4)cc3c2C(C)C)cc(C)n1 [Example 107, (4-(2-(2,6-dimethylpyridin-4-yl)-3-isopropyl-1H-indol-5-yl)piperidin-1-yl)(1-hydroxycyclopropyl)methanone]
20 | 8.13 | 6.99 | 4.48 | – | – | Cc1cc(-c2[nH]c3ccc(C4CCN(C(=O)C5CC5(F)F)CC4)cc3c2C(C)C)cc(C)n1 (stereo not drawn) [Example 108, (2,2-difluorocyclopropyl)(4-(2-(2,6-dimethylpyridin-4-yl)-3-isopropyl-1H-indol-5-yl)piperidin-1-yl)methanone]
21 | 7.97 | 6.83 | 4.38 | – | – | Cc1cc(-c2[nH]c3ccc(C4CCN(C(=O)C[C@H](C)O)CC4)cc3c2C(C)C)cc(C)n1 [Example 109, (S)-1-(4-(2-(2,6-dimethylpyridin-4-yl)-3-isopropyl-1H-indol-5-yl)piperidin-1-yl)-3-hydroxybutan-1-one]
22 | 8.41 | – | – | 8.09 | 6.41 | Cc1cc(-c2[nH]c3ccc(C4CCN(C(=O)C5CCN(C)CC5)CC4)cc3c2C(C)C)cc(C)n1 [Example 110, (4-(2-(2,6-dimethylpyridin-4-yl)-3-isopropyl-1H-indol-5-yl)piperidin-1-yl)(1-methylpiperidin-4-yl)methanone]
23 | 7.12 | 6.59 | 4.89 | – | – | Cc1cc(-c2[nH]c3ccc(C4CCN(C(=O)CCCN(C)C)CC4)cc3c2C(C)C)cc(C)n1 [Example 111, 4-(dimethylamino)-1-(4-(2-(2,6-dimethylpyridin-4-yl)-3-isopropyl-1H-indol-5-yl)piperidin-1-yl)butan-1-one]
24 | 8.21 | 7.00 | 4.80 | – | – | Cc1cc(-c2[nH]c3ccc(C4CCN(C(=O)c5cccnc5)CC4)cc3c2C(C)C)cc(C)n1 [Example 112, (4-(2-(2,6-dimethylpyridin-4-yl)-3-isopropyl-1H-indol-5-yl)piperidin-1-yl)(pyridin-3-yl)methanone]
25 | 8.51 | 7.08 | 4.33 | – | – | COCCOCC(=O)N1CCC(c2ccc3[nH]c(-c4cc(C)nc(C)c4)c(C(C)C)c3c2)CC1 [Example 114, 1-(4-(2-(2,6-dimethylpyridin-4-yl)-3-isopropyl-1H-indol-5-yl)piperidin-1-yl)-2-(2-methoxyethoxy)ethan-1-one]
26 | 8.27 | 6.88 | 4.35 | – | – | COCC(=O)N1CCC(c2ccc3[nH]c(-c4cc(C)nc(C)c4)c(C(C)C)c3c2)CC1 [Example 115, 1-(4-(2-(2,6-dimethylpyridin-4-yl)-3-isopropyl-1H-indol-5-yl)piperidin-1-yl)-2-methoxyethan-1-one]
27 | 8.47 | – | – | 6.90 | 4.49 | Cc1cc(-c2[nH]c3ccc(C4CCN(C(=O)CO)CC4)cc3c2C(C)C)cc(C)n1 [Example 116, 1-(4-(2-(2,6-dimethylpyridin-4-yl)-3-isopropyl-1H-indol-5-yl)piperidin-1-yl)-2-hydroxyethan-1-one]
28 | 8.18 | 6.93 | < 4.30 | – | – | Cc1cc(-c2[nH]c3ccc(C4CCN(C(=O)CCO)CC4)cc3c2C(C)C)cc(C)n1 [Example 117, 1-(4-(2-(2,6-dimethylpyridin-4-yl)-3-isopropyl-1H-indol-5-yl)piperidin-1-yl)-3-hydroxypropan-1-one]
29 | 8.16 | 7.02 | 5.26 | – | – | Cc1cc(-c2[nH]c3ccc(C4CCN(C(=O)c5c(C)noc5C)CC4)cc3c2C(C)C)cc(C)n1 [Example 119, (3,5-dimethylisoxazol-4-yl)(4-(2-(2,6-dimethylpyridin-4-yl)-3-isopropyl-1H-indol-5-yl)piperidin-1-yl) methanone]
